# Measured values: patent US20240139236A1, “COPPER HISTIDINATE COMPOSITIONS AND USES THEREOF” (Cyprium Therapeutics, Inc., priority 2021, published 2024)
# Marks after values point to notes of the source that are not given here.
# Assay: Single subcutaneous dose [14C]-copper histidinate pharmacokinetic study in healthy adult male subjects
# Type: in vivo, human
# Conditions: for Whole Blood:Serum Total Radioactivity Partitioning Ratio (Arithmetic Mean ± SD): n = 6; for Whole Blood:Serum Total Radioactivity Partitioning Ratio: 504 hour postdose, n = 1 (Subject 6)
# Text: The primary objective of this study was to quantitate total radioactivity (TRA) in whole blood, serum, and the eluted fractions of serum spiked with unlabeled copper histidinate (CuHis) from a size exclusion-high performance liquid chromatography (SEC-HPLC) column after a single subcutaneous (SC) administration of [^14C] CuHis in healthy adult male subjects. Further, the study was designed to determine the percentage of ^14C radioactivity associated with cellular components in whole blood over time (e.g., whole blood:serum partitioning concentration ratio).
# To evaluate the safety and tolerability after a single SC administration of [^14C] CuHis in healthy adult male subjects. This was an open-label, single-dose, 1-period, PK study conducted at 1 study center in the USA. Six (6) healthy, adult male subjects were enrolled. Screening of subjects occurred within 28 days prior to dosing.
# On Day 1, a single SC 3.0 mg (˜500 nCi) dose of [^14C]-CuHis was administered. Pharmacokinetic (PK) samples for determining TRA in whole blood and serum, and [^14C] CuHis in eluted fractions of serum spiked with unlabeled CuHis from an SEC-HPLC column were collected pre-dose and up to 168 hours post-dose (Subjects 1 to 5) or 504 hours post-dose (Subject 6).
# A single dose of 3.0 mg (˜500 nCi) [^14C]-CuHis (equivalent to approximately 500 μg of elemental copper) for SC bolus injection was administered into the upper arm of each subject at Hour 0 on Day 1. Hour 0 corresponded to the start of the bolus SC administration on Day 1. Subjects were instructed not to rub the injection site(s).
# Blood samples for determining TRA in whole blood and serum, and [^14C]-CuHis in eluted fractions of serum spiked with unlabeled CuHis from a SEC-HPLC column were collected predose and up to 168 hours postdose (Subjects 1 to 5) or up to 504 hours postdose (Subject 6).
# TRA CuHis concentration equivalents in whole blood and serum were determined using accelerator mass spectrometry (AMS) at Pharmaron ABS, Inc. (Germantown, Maryland, USA). The lower limits of quantitation (LLOQ) for TRA CuHis concentration equivalents in whole blood and serum ranged from 0.711 to 0.770 ng eq CuHis/mL and 0.239 to 0.284 ng eq CuHis/mL in the different subjects, respectively.
# [^14C]-CuHis concentrations in serum fractions from the SEC-HPLC column were determined using AMS at Pharmaron ABS, Inc. (Germantown, Maryland, USA). The LLOQ for [^14C]-CuHis concentrations in serum was 0.270 ng/mL.
# Whole blood: serum TRA partitioning ratios were calculated at each postdose time point for each subject as the ratio between whole blood TRA CuHis concentration equivalents and serum TRA CuHis concentration equivalents. The following parameters were calculated for whole blood and serum TRA, and serum [^14C]-CuHis, when possible: AUC0-24, AUC0-last, AUC0-∞, AUC% extrap, Cmax, tmax, tlag, Kel, and t1/2. The AUC0-24 Ratio was calculated for serum [^14C]-CuHis versus serum TRA. CL/F and Vz/F were calculated for serum [^14C]-CuHis.
# Whole blood and serum TRA CuHis concentration equivalents, serum [^14C]-CuHis concentrations, and whole blood:serum TRA partitioning ratios were listed and summarized by time point for all subjects in the PK population. Summary statistics, including sample size (n), arithmetic mean (Mean), standard deviation (SD), coefficient of variation (CV %), standard error of the mean (SEM), minimum, median, and maximum were calculated for the above data at each nominal time point.
# Whole blood and serum TRA PK parameters, and serum [^14C]-CuHis PK parameters were listed for each subject and summarized for all subjects in the PK population. Summary statistics (n, Mean, SD, CV %, SEM, minimum, median, maximum, geometric mean [Geom Mean], and geometric CV % [Geom CV %]) were calculated for all PK parameters.
# [1] = single SC 3.0 mg, arithmetic mean ± SD
# [2] = single SC 3.0 mg, geometric mean (geometric CV%)
# [3] = single SC 3.0 mg, median (minimum, maximum)
# [4] = single SC 3.0 mg, median (minimum, maximum), listed as [^14C]-CuHis
# [5] = single SC 3.0 mg, up to 168 h, Subject 6 excluded, geometric mean (geometric CV%)
structure (smiles),measurement,setting,value
N[C@@H](Cc1c[nH]cn1)C(=O)O.N[C@@H](Cc1c[nH]cn1)C(=O)O.[Cu] [[^14C]-Copper Histidinate],Whole Blood:Serum Total Radioactivity Partitioning Ratio (Arithmetic Mean ± SD),0.25 hour postdose,0.6165 ± 0.1072
same,Whole Blood:Serum Total Radioactivity Partitioning Ratio (Arithmetic Mean ± SD),0.5 hour postdose,0.6410 ± 0.05811
same,Whole Blood:Serum Total Radioactivity Partitioning Ratio (Arithmetic Mean ± SD),0.75 hour postdose,0.6426 ± 0.05966
same,"arithmetic mean serum CuHis concentration, peak",0.75 hours postdose,63.47 ng/mL
same,Whole Blood:Serum Total Radioactivity Partitioning Ratio (Arithmetic Mean ± SD),1 hour postdose,0.6888 ± 0.06107
same,Whole Blood:Serum Total Radioactivity Partitioning Ratio (Arithmetic Mean ± SD),1.5 hour postdose,0.6728 ± 0.0542
same,Whole Blood:Serum Total Radioactivity Partitioning Ratio (Arithmetic Mean ± SD),2 hour postdose,0.6761 ± 0.03446
same,Whole Blood:Serum Total Radioactivity Partitioning Ratio (Arithmetic Mean ± SD),4 hour postdose,0.7010 ± 0.09398
same,Whole Blood:Serum Total Radioactivity Partitioning Ratio (Arithmetic Mean ± SD),8 hour postdose,0.5856 ± 0.1175
same,"arithmetic mean serum TRA CuHis concentration equivalent, peak",8 hours postdose,97.43 ng eq CuHis/mL
same,Whole Blood:Serum Total Radioactivity Partitioning Ratio (Arithmetic Mean ± SD),16 hour postdose,0.7144 ± 0.1134
same,Whole Blood:Serum Total Radioactivity Partitioning Ratio (Arithmetic Mean ± SD),24 hour postdose,0.6708 ± 0.08484
same,Whole Blood:Serum Total Radioactivity Partitioning Ratio (Arithmetic Mean ± SD),36 hour postdose,0.7498 ± 0.04878
same,Whole Blood:Serum Total Radioactivity Partitioning Ratio (Arithmetic Mean ± SD),"36 hour postdose, listed as [^14C]-CuHis",0.7498
same,Whole Blood:Serum Total Radioactivity Partitioning Ratio (Arithmetic Mean ± SD),48 hour postdose,0.8329 ± 0.09811
same,Whole Blood:Serum Total Radioactivity Partitioning Ratio (Arithmetic Mean ± SD),72 hour postdose,1.209 ± 0.1925
same,Whole Blood:Serum Total Radioactivity Partitioning Ratio (Arithmetic Mean ± SD),96 hour postdose,1.612 ± 0.3461
same,Whole Blood:Serum Total Radioactivity Partitioning Ratio (Arithmetic Mean ± SD),120 hour postdose,1.853 ± 0.3512
same,Whole Blood:Serum Total Radioactivity Partitioning Ratio (Arithmetic Mean ± SD),144 hour postdose,2.163 ± 0.3333
same,Whole Blood:Serum Total Radioactivity Partitioning Ratio (Arithmetic Mean ± SD),168 hour postdose,2.392 ± 0.222
same,Whole Blood:Serum Total Radioactivity Partitioning Ratio (Arithmetic Mean ± SD),"168 hour postdose, listed as [^14C]-CuHis",2.392
same,"arithmetic mean whole blood TRA CuHis concentration equivalents, highest level",168 hours postdose,100.9 ng eq CuHis/mL
same,Whole Blood:Serum Total Radioactivity Partitioning Ratio,,2.160*
same,Whole Blood:Serum Total Radioactivity Partitioning Ratio,listed as [^14C]-CuHis,2.16
same,serum TRA CuHis concentration equivalent,"504 hours postdose, Subject 6",30.7 ng eq CuHis/mL
same,whole blood TRA CuHis concentration equivalent,"504 hours postdose, Subject 6",66.3 ng eq CuHis/mL
same,exposure to TRA (AUC0-last) higher in whole blood than in serum,by 168 hours postdose,approximately 29%
same,exposure to TRA (AUC0-24) lower in whole blood than in serum,first 24 hours postdose,approximately 34%
same,exposure to TRA in the serum associated with [14C]-CuHis,first 24 hours postdose,Approximately 9%
same,"distribution phase half-life, serum [14C]-CuHis","initial rapid decrease after peak, estimated",2 to 3 h
same,"peak exposure to TRA (Cmax), whole blood compared with serum",single SC 3.0 mg,similar
same,"AUC0-∞, serum total radioactivity","single SC 3.0 mg, Subject 6 excluded, geometric mean (geometric CV%)",23390 (25.7) [n = 5]^c ng eq CuHis · hr/mL
same,"AUC% extrap, serum [14C]-copper histidinate",[1],12.37 ± 8.3964 [n = 5]^e %
same,"AUC% extrap, serum total radioactivity",[1],58.34 ± 12.677 [n = 5]^c %
same,"CL/F, serum [14C]-copper histidinate",[1],10.34 ± 1.6214 [n = 5]^e L/hr
same,"Kel, serum [14C]-copper histidinate",[1],0.0166 ± 0.01512 [n =5]^e 1/hr
same,"Kel, serum total radioactivity",[1],0.003278 ± 0.001588 [n = 5]^c 1/hr
same,"t1/2, serum [14C]-copper histidinate (terminal elimination phase)",[1],74.842 ± 49.1558 [n = 5]^e hr
same,"t1/2, serum [14C]-copper histidinate (terminal elimination phase)","single SC 3.0 mg, arithmetic mean ± SD, listed as [^14C]-CuHis",~75 h
same,"AUC0-24, serum [14C]-copper histidinate",[2],185.6 (20.6) ng · hr/mL
same,"AUC0-24, serum total radioactivity",[2],1993 (21.4) [n = 6] ng eq CuHis · hr/mL
same,"AUC0-24, whole blood total radioactivity",[2],1315 (30.4) [n = 6] ng eq CuHis · hr/mL
same,"AUC0-24 Ratio, serum [14C]-CuHis versus serum total radioactivity",[2],0.09317 (19.5) [n = 6]
same,"AUC0-last, serum [14C]-copper histidinate",[2],249.3 (10.6) ng · hr/mL
same,"AUC0-∞, serum [14C]-copper histidinate",[2],296.0 (15.3) ng · hr/mL
same,"Cmax, serum [14C]-copper histidinate",[2],67.14 (35.9) ng/mL
same,"Cmax, serum total radioactivity",[2],95.78 (24.3) [n = 6] ng eq CuHis/mL
same,"Cmax, whole blood total radioactivity",[2],100.1 (14.8) [n = 6] ng eq CuHis/mL
same,"AUC0-24 Ratio, serum [14C]-CuHis versus serum total radioactivity","single SC 3.0 mg, geometric mean (geometric CV%), listed as [^14C]-CuHis",0.09317
same,"tlag, serum [14C]-copper histidinate",[3],"0.00 (0.00, 0.00) [n = 6] hr"
same,"tlag, serum total radioactivity",[3],"0.00 (0.00, 0.00) [n = 6] hr"
same,"tlag, whole blood total radioactivity",[3],"0.00 (0.00, 0.00) [n = 6] hr"
same,"tmax, serum [14C]-copper histidinate",[3],"0.747 (0.50, 0.76) hr"
same,"tmax, serum total radioactivity",[3],"8.007 (7.99, 16.02) [n = 6] hr"
same,"tmax, whole blood total radioactivity",[3],"168.006 (144.01, 168.03) [n = 6] hr"
same,"tmax, serum [14C]-copper histidinate",[4],0.75 h
same,"tmax, serum total radioactivity",[4],~8 h
same,"tmax, whole blood total radioactivity",[4],~168 h
same,"AUC0-last, serum total radioactivity",[5],9390 (13.4) [n = 5]^c ng eq CuHis · hr/mL
same,"AUC0-last, whole blood total radioactivity",[5],12130 (15.3) [n = 5]^c ng eq CuHis · hr/mL
